The values below come from US6855807B1 (priority 1999, dated 2005).

The target of one assay is T1, kappa opioid receptor (Rattus norvegicus, UniProt P34975).
T1 construct: expressed in transfected cells; host or cells: HEK293
The assay is described as follows: biochemical. Type of assay: binding.

Another assay has as its target T2, kappa-delta heterodimer (UniProt P32300+P34975).
T2 construct: myc; FLAG; expressed in transfected cells; host or cells: HEK293
The assay is described as follows: biochemical. Format: binding, rat kappa, mouse delta.

Where two headings read alike, the source gives them in different places.

T1 sequence (P34975 whole entry): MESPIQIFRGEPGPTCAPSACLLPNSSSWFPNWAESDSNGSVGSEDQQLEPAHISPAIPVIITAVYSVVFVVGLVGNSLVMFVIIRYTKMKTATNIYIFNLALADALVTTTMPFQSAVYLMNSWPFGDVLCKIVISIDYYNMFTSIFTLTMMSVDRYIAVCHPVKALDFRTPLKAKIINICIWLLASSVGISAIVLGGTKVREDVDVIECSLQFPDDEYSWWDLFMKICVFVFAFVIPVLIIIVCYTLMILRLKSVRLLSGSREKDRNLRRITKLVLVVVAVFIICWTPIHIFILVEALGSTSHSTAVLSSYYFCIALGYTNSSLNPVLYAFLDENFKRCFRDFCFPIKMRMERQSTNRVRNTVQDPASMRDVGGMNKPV
T2 sequence (P34975 whole entry): as above
T2 sequence (P32300 whole entry): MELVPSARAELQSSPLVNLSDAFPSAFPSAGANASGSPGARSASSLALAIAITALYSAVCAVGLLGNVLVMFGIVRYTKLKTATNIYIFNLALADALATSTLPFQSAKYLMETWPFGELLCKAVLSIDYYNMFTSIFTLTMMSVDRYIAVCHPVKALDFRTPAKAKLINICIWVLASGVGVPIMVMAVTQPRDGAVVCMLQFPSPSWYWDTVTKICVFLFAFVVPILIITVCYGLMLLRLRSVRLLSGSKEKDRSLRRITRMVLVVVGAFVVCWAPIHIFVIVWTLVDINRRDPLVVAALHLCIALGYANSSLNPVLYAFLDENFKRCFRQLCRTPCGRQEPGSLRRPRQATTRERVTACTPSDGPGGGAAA

`O=C1C(=Cc2ccccc2)C[C@@]2(O)[C@H]3Cc4ccc(O)c5c4[C@@]2(CCN3CC2CC2)[C@H]1O5` [BNTX, 7-Benzylidenenaltrexone]: the Ki at kappa opioid receptor (read-out: Kappa (Ki)) was determined as 172 ± 19 nM; on kappa-delta heterodimer (read-out: Kappa-Delta (Ki)) it was 98 ± 19 nM.

Regarding `CCC12CCN(CC3(O)CC3)C(Cc3ccc(O)cc31)C2(C)C` (stereo not shown) [Bremazocine], the values for the Ki at kappa opioid receptor and at kappa-delta heterodimer (Kappa-Delta (Ki)) were 0.4 ± 0.11 nM and 1.2 ± 0.1 nM, respectively.

In the case of `CC[C@]12CCN(CC3CC3)[C@H](C(=O)c3ccc(O)cc31)[C@@H]2C` [EKC, ethylketocyclazocine], the figures for the Ki at kappa opioid receptor and at kappa-delta heterodimer (Kappa-Delta (Ki)) were 5.7 ± 0.79 nM and 2.6 ± 0.2 nM, respectively.

For `Oc1ccc2c3c1O[C@H]1c4[nH]c5ccccc5c4C[C@@]4(O)[C@@H](C2)N(CC2CC2)CC[C@]314` [Naltrinole], the Ki on kappa opioid receptor is 44.3 ± 1.1 nM; on kappa-delta heterodimer (Kappa-Delta (Ki)) it was 44 ± 1.1 nM.

On to `Oc1ccc2c3c1O[C@H]1c4[nH]c5c(c4C[C@@]4(O)[C@@H](C2)N(CC2CC2)CC[C@]314)C[C@@]1(O)[C@H]2Cc3ccc(O)c4c3[C@@]1(CCN2CC1CC1)[C@H]5O4` [nor-BNI, nor-binaltorphimine], for which, on kappa opioid receptor, the Ki stood at 4.9 ± 0.3 nM and the “affinity of kappa receptors (in words)” value is on record as “high affinities”.
